The text below walks through data of US12168781B2, “Production method for T cells or NK cells, medium for culturing T cells or NK cells, method for culturing T cells or NK cells, method for maintaining undifferentiated state of undifferentiated T cells, and growth-accelerating agent for T cells or NK cells” (KIRIN HOLDINGS KABUSHIKI KAISHA, priority 2018, dated 2024).

Each structure is given as a SMILES string.

For the test, the system named is T-iPS-T cells. The experiment in a line: Feeder-free culture of T-iPS-T cells, FACS count of PI-negative cells and CD45RA(+)CCR7(+) cells. It counts as cell-based, human. Conditions: 6 days; for Number of CD45RA+CCR7+ cells: DMSO 3891 ± 3170; for Cell number: DMSO 16096 ± 10785. The method, then: After washing, the cells were resuspended in the staining solution containing PI. Half the amount was analyzed using a BD LSR Fortessa cytometer (BD Bioscience) equipped with HTS, and all cells were recorded.
The concentration dependence of the bisbenzylisoquinoline alkaloid represented by the formula (X-1) or the formula (X-2) in feeder-free proliferation of T-iPS-T cells was examined. T-iPS-T cells were cultured using alpha-MEM medium supplemented with 15% FBS, 1% PSG, PAA (50 μg/mL), ITS-G, IL-7 (5 ng/mL), IL-12 (50 ng/mL), IL-15 (5 ng/mL), IL-18 (50 ng/mL), IL-21 (20 ng/mL), and z-VAD-fmk (10 μM).
The effect on culturing of T-iPS-T cells was evaluated by comparing a known compound that contributes to the proliferation of memory T cells with berbamine. […] DMSO (0.1%) that is a solvent for the compound was used as a control.
The number of events of PI-negative cells and the number of events of CD45RA(+)CCR7(+) cells in the PI-negative cells, which were analyzed by FlowJo 9, were used as data. Note that in a statistical analysis, a Student's t-test was used (*: p<0.05).
The effect of the combined use of berbamine with a MAPK cascade inhibitor on the proliferation of memory T cells was examined. […] The final concentration of each compound was set to 1 μM. DMSO (0.1%) that is a solvent for the compound was used as a control.
The number of events (#Cells) of CD45RA(+)CCR7(+) cells in the PI-negative cell population analyzed by FlowJo 9 was plotted and graphed. Note that in a statistical analysis, a Student's t-test was used (*: p<0.05, **P<0.01, ***P<0.001, ****P<0.0001).

With `COc1ccc2cc1Oc1ccc(cc1)C[C@H]1c3c(cc4c(c3Oc3cc5c(cc3OC)CCN(C)[C@@H]5C2)OCO4)CCN1C` [Cepharanthine, cepharanthine], the “Number of CD45RA+CCR7+ cells” value (1 nM) is 5429 ± 3207 **; the “Number of CD45RA+CCR7+ cells” value (3 nM) is recorded as 5256 ± 3168; the “Number of CD45RA+CCR7+ cells” value (10 nM) was 5632 ± 3014 ***; the “Number of CD45RA+CCR7+ cells” value (30 nM) is recorded as 7764 ± 3495 **; the “Number of CD45RA+CCR7+ cells” value (100 nM) is given as 9486 ± 4802 *; the “Number of CD45RA+CCR7+ cells” value (300 nM) was 13060 ± 7584 *. For the same molecule, the “Number of CD45RA+CCR7+ cells” value is on record as 10741 ± 5793 (1 μM), 9245 ± 4682 * (3 μM) and 1447 ± 2117 (10 μM). In addition, the Cell number (1 nM) is given as 18312 ± 7127; the Cell number (3 nM) came out at 19212 ± 8368; the Cell number (10 nM) was found to be 20590 ± 9995; the Cell number (30 nM) is recorded as 29158 ± 12980 *; the Cell number (100 nM) is 41856 ± 9113 **; the Cell number (300 nM) was 52923 ± 5313 **. Moreover, the Cell number runs as follows: (1 μM) 48800 ± 17971 *; (3 μM) 31965 ± 19694; (10 μM) 4884 ± 8378.
For the molecule `COc1cc2c3cc1Oc1c(OC)c(OC)cc4c1[C@@H](Cc1ccc(OC(=O)c5ccc([N+](=O)[O-])cc5)c(c1)Oc1ccc(cc1)C[C@@H]3N(C)CC2)N(C)CC4` [E6 Berbamine, E6-berbamine], the “Number of CD45RA+CCR7+ cells” value by setting is: (1 nM) 6440 ± 4121 *; (3 nM) 6205 ± 4137 *; (10 nM) 6015 ± 4682; (30 nM) 7410 ± 4691 *; (100 nM) 10775 ± 5788 *; (300 nM) 12148 ± 6414 *. Further, the “Number of CD45RA+CCR7+ cells” value is, setting by setting: (1 μM) 5075 ± 3582; (3 μM) 2080 ± 3520; (10 μM) 1791 ± 3538. The Cell number is recorded as 20795 ± 11427 ** (1 nM); 19420 ± 9845 ** (3 nM); 22404 ± 11035 *** (10 nM); 28009 ± 13327 * (30 nM); 44562 ± 11985 ** (100 nM); 55682 ± 3508 ** (300 nM). In addition, the Cell number runs as follows: (1 μM) 26964 ± 23925; (3 μM) 16367 ± 26569; (10 μM) 8441 ± 16764.
